Legend:
stromelysin = stromelysin (Homo sapiens, UniProt P08254); assay: Stromelysin inhibition (hydrolysis of 14C acetylated casein); type: biochemical; settings: 37°, 16 hours, pH 7.5, 14C acetylated casein
Method: The potency of compounds of the invention as inhibitors of stromelysin was determined by the procedure of Cawston et al, (Biochem. J., 195, 159-165, 1981), hereby incorporated by reference, whereby a 1 mM solution of the compound being tested, or a dilution thereof, was incubated at 37° for 16 hours with stromelysin and ^14 C acetylate casein (buffered with 25 mM Hepes [Registered Trade Mark], pH 7.5 containing 5 mM CaCl2, 0.05% Brij [Registered Trade Mark] 35 and 0.02% NAN3). The casein was acetylated ^14 C casein prepared by the method of Cawston et al (ibid).

collagenase = collagenase (Homo sapiens, UniProt P03956); assay: Collagenase inhibition (hydrolysis of acetylated 14C collagen); type: biochemical; settings: 37° C., 16 hours, pH 7.5, acetylated 14C collagen
collagenase, sequence (P03956 100-469): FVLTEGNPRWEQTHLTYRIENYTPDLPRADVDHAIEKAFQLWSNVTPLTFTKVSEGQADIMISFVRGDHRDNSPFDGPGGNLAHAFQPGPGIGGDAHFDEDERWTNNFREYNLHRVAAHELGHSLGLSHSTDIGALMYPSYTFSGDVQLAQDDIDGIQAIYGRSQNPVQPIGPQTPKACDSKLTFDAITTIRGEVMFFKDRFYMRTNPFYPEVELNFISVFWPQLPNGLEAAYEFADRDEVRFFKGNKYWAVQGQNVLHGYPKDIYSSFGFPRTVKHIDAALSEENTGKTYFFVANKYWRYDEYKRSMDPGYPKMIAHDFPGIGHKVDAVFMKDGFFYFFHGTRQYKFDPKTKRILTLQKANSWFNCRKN
Method: The potency of compounds of the invention as inhibitors of collagenase was determined by the procedure of Cawston and Barrett, (Anal. Biochem., 99, 340-345, 1979), hereby incorporated by reference, whereby a 1 mM solution of the compound being tested, or a dilution thereof, was incubated at 37° C. for 16 hours with collagen and collagenase (buffered with 25 mM Hepes [Registered Trade Mark], pH 7.5 containing 5 mM CaCl2, 0.05% Brij [Registered Trade Mark] 35 and 0.02% NAN3). The collagen Was acetylated 14C collagen prepared by the method of Cawston and Murphy, (Methods in Enzymology, 80, 711, 1981), hereby incorporated by reference. The samples were centrifuged to sediment undigested collagen, and an aliquot of the radioactive supernatant removed for assay on a scintillation counter as a measure of hydrolysis.

stromelysin, sequence (P08254 100-477): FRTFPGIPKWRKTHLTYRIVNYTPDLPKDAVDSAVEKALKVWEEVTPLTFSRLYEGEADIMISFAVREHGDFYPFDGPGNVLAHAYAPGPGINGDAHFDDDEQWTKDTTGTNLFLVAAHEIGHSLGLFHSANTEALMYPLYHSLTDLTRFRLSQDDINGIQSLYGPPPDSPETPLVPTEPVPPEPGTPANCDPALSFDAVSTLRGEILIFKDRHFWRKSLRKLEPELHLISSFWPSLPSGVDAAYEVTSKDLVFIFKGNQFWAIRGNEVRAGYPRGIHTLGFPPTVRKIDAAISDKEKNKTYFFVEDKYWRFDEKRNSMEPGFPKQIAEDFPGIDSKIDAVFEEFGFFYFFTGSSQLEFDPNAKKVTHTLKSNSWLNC

## CNC(=O)[C@H](Cc1ccc(OCC(=O)N[C@@H]2O[C@H](CO)[C@@H](O)[C@H](O)[C@H]2NC(C)=O)cc1)NC(=O)[C@@H](CC(=O)NO)CC(C)C [Example 3, [4-(N-Hydroxyamino)-2R-isobutylsuccinyl]-O-[(2-acetamido-2-deoxy-β-D-glucopyranosyl)carboxamidomethyl]-L-tyrosine-N-methylamide]
stromelysin
  IC50: 600 nM
collagenase
  IC50: 20 nM

— patent US5696082A, “Hydroxamic acid derivatives” (British Biotech Pharmaceuticals Limited, priority 1993, dated 1997)
